US20180289689A1, “USE OF CCR5 ANTAGONISTS ALONE OR IN COMBINATION THERAPY FOR THE TREATMENT OF CANCER” (RUPRECHT-KARLS-UNIVERSITÄT HEIDELBERG, priority 2014, published 2018)

Tests used:
[1] = system: colorectal cancer patients with hepatic metastases; test: MARACON-001 phase I trial, Maraviroc monotherapy; assay type: in vivo, human; conditions: for Objective response (RECIST)/ other responses: Patient 4, colorectal cancer (metastatic: lung and liver), monotherapy
Description: Clinical trial. A trial in colorectal cancer patients with hepatic metastases was initiated. […] In the trial, patients receive Maraviroc daily for two months. Safety and feasibility are the primary endpoints of this ongoing trial. The trial is being conducted according to the Declaration of Helsinki and relevant International Conference on Harmonization Good Clinical Practice guidelines and with approval from the ethics committee of the University of Heidelberg. […] All provided written informed consent before participating in this study. The overall workflow of the trial is depicted in FIG. 2.
Assessment of proliferation in histology samples. Briefly cryo sections were fixed with 4% paraformaldehyde (PFA, Sigma Aldrich, Germany). The sections were blocked with 10% normal goat serum (Vector, USA). […] The slides were incubated with a secondary antibody (rabbit-anti-mouse IgG, Bond Polymer Refine Detection System, Leica, Germany) for 8 minutes at room temperature. Further amplification of the signal was achieved through incubation with a third antibody, conjugated with horse radish peroxidase and coupled to dextrane molecules in large numbers, for 8 minutes at room temperature (Poly-HRP-mouse-anti-rabbit IgG, Bond Polymer Refine Detection System, Leica, Germany). The antigen detection was performed by a color reaction with 3,3-di-amino-benzidine (DAB chromogen, Bond Polymer Refine Detection System, Leica, Germany). The sections were counterstained with hematoxylin (Bond Polymer Refine Detection System, Leica, Germany) and mounted with Aquatex (Merck, Germany). Assessment was performed with the Visiomorph Software Package (Visiopharm, Denmark) to quantify positive tumor cells.

[2] = system: colorectal cancer liver metastases; test: Tumor explant model from freshly resected colorectal cancer liver metastases; assay type: cell-based, human; conditions: FIG. 1
Description: Tumor explant models. Tumor explant models were generated from freshly resected colorectal cancer liver metastases. Explanted tissue specimens were cut into three equal parts, placed in unconditioned medium and either treated with DMSO or Maraviroc (in DMSO) or without any addition. The explants were then harvested and subjected to histological analyses (see FIG. 1) and multiplex protein analysis (see FIG. 3).

Structure (SMILES): Cc1nnc(C(C)C)n1[C@@H]1C[C@H]2CC[C@@H](C1)N2CC[C@H](NC(=O)C1CCC(F)(F)CC1)c1ccccc1 [Maraviroc, 4,4-difluoro-N-{(1S)-3-[3-(3-isopropyl-5-methyl-4H-1,2,4-triazol-4-yl)-8-azabicyclo[3.2.1]oct-8-yl]-1-phenylpropyl}cyclohexanecarboxamide]
- tumor cell death in patients (biopsies) ([1]; Maraviroc 300 mg/bid, second biopsy after 8-10 days): tumor cell death
- Objective response (RECIST)/ other responses ([1]; liver): −10% (liver)
- Objective response (RECIST)/ other responses ([1]; lung): −50% (lung),
- radiologically measured area of necrosis of liver metastases ([1]; before vs after therapy, percentage of necrotic area of reference lesion, FIG. 5): increase in necrotic area
- proliferation activity (Ki67 percentage) of tumor cells ([1]; before vs under treatment (8-10 days, second biopsy), FIG. 4): Reductions
- key cytokines for tumor growth, chemotherapy resistance or angiogenesis ([1]; day 0 (pretreatment) vs day 9 of treatment, FIG. 3): Marked Changes
- tolerability ([1]; patients): well-tolerated
- side effects ([1]; patients, so far): does not have significant side effects
- tumor cell death upon inhibition of CCR5 ([2]; explants treated with Maraviroc (in DMSO)): clear tumor cell death
- effects in the adjacent liver ([2]; explants treated with Maraviroc): no effects
- histology of treated section (hemalaun counterstaining) ([2]; treated section vs untreated control section): Large areas of necrosis and only few remaining tumor cells
